According to ChEMBL document CHEMBL5344465, “Innovations in Pharmacology: Enhancing Bioavailability and Efficacy through Novel Compositions” (ACS Med Chem Lett, 2024):
Calls of active or inactive are those of the source.

Key:
Type in all cases: functional, cell-based
A 172 [1] = assay: Neuroprotective activity against human A-172 cells assessed as effect on GABA level
[2] = system: Small intestinal epithelial cell; assay: Antiinflammatory activity against TNFalpha/INFgamma induced human small intestinal epithelial cells assessed as reduction in COX-2 level
[3] = system: Small intestinal epithelial cell; assay: Antiinflammatory activity against TNFalpha/INFgamma induced human small intestinal epithelial cells assessed as reduction in IL-6 level
A 172 [4] = assay: Neuroprotective activity against human A-172 cells assessed as effect on BDNF level

Measured: Activity

CN(C)CCc1c[nH]c2cccc(OP(=O)(O)O)c12
active: all assays above

C=CCc1ccc(O)c(OC)c1
active: all assays above
